Data published in patent US9315475B2 (MERCK SHARP & DOHME CORP., priority 2011, dated 2016).

target: T1, wildtype HIV-1 protease (Human immunodeficiency virus type 1 group M subtype B, UniProt P04585); experiment: Assay for inhibition of microbial expressed HIV protease (Pepcleav); format: biochemical; conditions: Pepcleav (nM)
T1 construct: the wildtype HIV-1 protease (which was expressed in Escherichia coli); made in house; host or cells: Escherichia coli
Protocol: Assay for Inhibition of Microbial Expressed HIV Protease (“Pepcleav”)
Studies of the inhibition of the wildtype HIV-1 protease (which was expressed in Escherichia coli) were carried out with a peptide substrate [Val-Ser-Gln-Asn-(βnaphthyl)Ala-Pro-Ile-Val (SEQ ID NO:1)]. The inhibitor is first preincubated with the HIV-1 protease (wild type) enzyme in assay buffer (50 mM sodium acetate, pH 5.5, 100 mM NaCl, and 0.1% BSA) for 30 minutes at room temperature. Substrate is added to 400 micromolar in a total volume of 20 microliters containing 20 picomolar HIV-1 protease (final) and the reaction is incubated for 1 hour at 30° C. The reaction is quenched with the addition of formic acid and indinavir to 0.012% and 150 nM final concentrations, respectively. The product formation is determined after separation of product and substrate on a Zorbax Eclipse XDB-C 18 column connected to an API 4000 mass spectrometer (Applied Biosystems) with multiple reaction monitoring (transitions were 644.5/428.9 and 615.4/422.2 (M1/M3) for product and indinavir respectively). The extent of inhibition of the reaction is determined from the peak area of the products.

`COC(=O)N[C@H](C(=O)Nc1ccccc1CC[C@@H]1CN[C@H](COC(=O)N[C@H]2CO[C@H]3OCC[C@H]32)CO1)C(c1ccccc1)c1ccccc1` [Example 13, N-(2-{2-[(2R,5S)-5-({[(3R,3aS,6aR)-hexahydrofuro[2,3-b]furan-3-ylcarbamoyl]oxy}methyl)morpholin-2-yl]ethyl}phenyl)-Nα-(methoxycarbonyl)-β-phenyl-L-phenylalaninamide] gave an IC50 of 110 nM.

same assay, conditions: wild type HIV-1 protease expressed in E. coli, peptide substrate, pH 5.5; mean of at least two independent experiments; read-out: Pepcleav

`COC(=O)N[C@H](C(=O)Nc1ccccc1CC[C@@H]1CN[C@H](C(=O)O)CO1)C(c1ccccc1)c1ccccc1` [Example 1, (3S,6R)-6-[2-(2-{[N-(methoxycarbonyl)-β-phenyl-L-phenylalanyl]amino}phenyl)ethyl]morpholine-3-carboxylic acid] and `COC(=O)N[C@H](C(=O)Nc1ccccc1CC[C@@H]1CN[C@H](C(N)=O)CO1)C(c1ccccc1)c1ccccc1` [Example 11, methyl [(1S)-2-[(2-{2-[(2R,5S)-5-(aminocarbonyl)morpholin-2-yl]ethyl}phenyl)amino]-1-(diphenylmethyl)-2-oxoethyl]carbamate] are within 1.5-fold of each other in IC50: 65 nM for the first, 80 nM for the second.

Compared with `COC(=O)N[C@H](C(=O)Nc1ccccc1CC[C@@H]1CN[C@H](C(=O)NCc2ccccc2)CO1)C(c1ccccc1)c1ccccc1` [Example 2, N-(2-{2-[(2R,5S)-5-(benzylcarbamoyl)morpholin-2-yl]ethyl}phenyl)-Nα-(methoxycarbonyl)-β-phenyl-L-phenylalaninamide], `COC(=O)N[C@H](C(=O)Nc1ccccc1CC[C@@H]1CN[C@H](C(=O)NCCc2ccccc2)CO1)C(c1ccccc1)c1ccccc1` [Example 6, Nα-(methoxycarbonyl)-β-phenyl-N-[2-(2-{(2R,5S)-5-[(2-phenylethyl)carbamoyl]morpholin-2-yl}ethyl)phenyl]-L-phenylalaninamide] is 7.1-fold higher in IC50: 1.4 nM for the first, 9.9 nM for the second. The first is the more potent here.

Compared with `CCNC(=O)[C@@H]1CO[C@H](CCc2ccccc2NC(=O)[C@@H](NC(=O)OC)C(c2ccccc2)c2ccccc2)CN1` [Example 3, N-(2-{2-[(2R,5S)-5-(ethylcarbamoyl)morpholin-2-yl]ethyl}phenyl)-Nα-(methoxycarbonyl)-β-phenyl-L-phenylalaninamide], `COC(=O)N[C@H](C(=O)Nc1ccccc1CC[C@@H]1CN[C@H](C(=O)NC(C)(C)C)CO1)C(c1ccccc1)c1ccccc1` [Example 8, N-(2-{2-[(2R,5S)-5-(tert-butylcarbamoyl)morpholin-2-yl]ethyl}phenyl)-Nα-(methoxycarbonyl)-β-phenyl-L-phenylalaninamide] is 2.7-fold higher in IC50: 15 nM for the first, 41 nM for the second.

Compared with `COC(=O)N[C@H](C(=O)Nc1ccccc1CC[C@@H]1CN[C@H](C(=O)NC2CCOC2)CO1)C(c1ccccc1)c1ccccc1` (stereo partly drawn) [Example 4, Nα-(methoxycarbonyl)-β-phenyl-N-(2-{2-[(2R,5S)-5-(tetrahydrofuran-3-ylcarbamoyl)morpholin-2-yl]ethyl}phenyl)-L-phenylalaninamide], `COC(=O)N[C@H](C(=O)Nc1ccccc1CC[C@@H]1CN[C@H](COC(=O)NC2CCC2)CO1)C(c1ccccc1)c1ccccc1` [Example 23, methyl N-[(1S)-1-benzhydryl-2-[[2-[2-[(2R,5S)-5-(cyclobutylcarbamoyloxymethyl)morpholin-2-yl]ethyl]phenyl]amino]-2-oxo-ethyl]carbamate] is 3.2-fold higher in IC50: 25 nM for the first, 80 nM for the second. The first is the more potent here.

Going from `COC(=O)N[C@H](C(=O)Nc1ccccc1CC[C@@H]1CN[C@H](C(=O)N2CCCC2)CO1)C(c1ccccc1)c1ccccc1` [Example 5, Nα-(methoxycarbonyl)-β-phenyl-N-(2-{2-[(2R,5S)-5-(pyrrolidin-1-ylcarbonyl)morpholin-2-yl]ethyl}phenyl)-L-phenylalaninamide] to `COC(=O)N[C@H](C(=O)Nc1ccccc1CC[C@@H]1CN[C@H](C(=O)Nc2ccccc2)CO1)C(c1ccccc1)c1ccccc1` [Example 7, Nα-(methoxycarbonyl)-β-phenyl-N-(2-{2-[(2R,5S)-5-(phenylcarbamoyl)morpholin-2-yl]ethyl}phenyl)-L-phenylalaninamide], the IC50 falls from 80 nM to 0.8 nM (100-fold).

Going from `COC(=O)N[C@H](C(=O)Nc1ccccc1CC[C@@H]1CN[C@H](C(=O)NNc2ccccc2)CO1)C(c1ccccc1)c1ccccc1` [Example 9, Nα-(methoxycarbonyl)-β-phenyl-N-[2-(2-{(2R,5S)-5-[(2-phenylhydrazinyl)carbonyl]morpholin-2-yl}ethyl)phenyl]-L-phenylalaninamide] to `COC(=O)N[C@H](C(=O)Nc1ccccc1CC[C@@H]1CN[C@H](C(=O)NS(=O)(=O)c2ccccc2)CO1)C(c1ccccc1)c1ccccc1` [Example 10, Nα-(methoxycarbonyl)-β-phenyl-N-[2-(2-{(2R,5S)-5-[(phenylsulfonyl)carbamoyl]morpholin-2-yl}ethyl)phenyl]-L-phenylalaninamide], the IC50 falls from 88 nM to 17 nM (5.2-fold). The second is the more potent here.

Going from `COC(=O)N[C@H](C(=O)Nc1ccccc1CC[C@@H]1CN[C@H](COC(=O)NCc2ccccc2F)CO1)C(c1ccccc1)c1ccccc1` [Example 12, N-(2-{2-[(2R,5S)-5-({[(2-fluorobenzyl)carbamoyl]oxy}methyl)morpholin-2-yl]ethyl}phenyl)-Nα-(methoxycarbonyl)-β-phenyl-L-phenylalaninamide] to `COC(=O)N[C@H](C(=O)Nc1ccccc1CC[C@@H]1CN[C@H](COC(=O)NCc2ccc(F)cc2)CO1)C(c1ccccc1)c1ccccc1` [Example 16, methyl N-[(1S)-1-benzhydryl-2-[[2-[2-[(2R,5S)-5-[(4-fluorophenyl)methylcarbamoyloxymethyl]morpholin-2-yl]ethyl]phenyl]amino]-2-oxo-ethyl]carbamate], the IC50 rises from 3.6 nM to 5.9 nM (1.6-fold).

Going from `COC(=O)N[C@H](C(=O)Nc1ccccc1CC[C@@H]1CN[C@H](COC(=O)N[C@H]2c3ccccc3C[C@H]2O)CO1)C(c1ccccc1)c1ccccc1` [Example 14, N-[2-(2-{(2R,5S)-5-[({[(1S,2R)-2-hydroxy-2,3-dihydro-1H-inden-1-yl]carbamoyl}oxy)methyl]morpholin-2-yl}ethyl)phenyl]-Nα-(methoxycarbonyl)-β-phenyl-L-phenylalaninamide] to `COC(=O)N[C@H](C(=O)Nc1ccccc1CC[C@@H]1CN[C@H](COC(=O)NC2CCc3ccccc32)CO1)C(c1ccccc1)c1ccccc1` (stereo partly drawn) [Example 15, N-(2-{2-[(2R,5S)-5-{[(2,3-dihydro-1H-inden-1-ylcarbamoyl)oxy]methyl}morpholin-2-yl]ethyl}phenyl)-Nα-(methoxycarbonyl)-β-phenyl-L-phenylalaninamide], the IC50 falls from 17 nM to 4.1 nM (4.1-fold). The second is the more potent here.

Compared with `COC(=O)N[C@H](C(=O)Nc1ccccc1CC[C@@H]1CN[C@H](COC(=O)NCC(F)(F)F)CO1)C(c1ccccc1)c1ccccc1` [Example 17, methyl N-[(1S)-1-benzhydryl-2-oxo-2-[[2-[2-[(2R,5S)-5-(2,2,2-trifluoroethylcarbamoyloxymethyl)morpholin-2-yl]ethyl]phenyl]amino]ethyl]carbamate], `COC(=O)N[C@H](C(=O)Nc1ccccc1CC[C@@H]1CN[C@H](COC(=O)NCC(F)F)CO1)C(c1ccccc1)c1ccccc1` [Example 24, methyl N-[(1S)-1-benzhydryl-2-[[2-[2-[(2R,5S)-5-(2,2-difluoroethylcarbamoyloxymethyl)morpholin-2-yl]ethyl]phenyl]amino]-2-oxo-ethyl]carbamate] is 3.1-fold higher in IC50: 27 nM for the first, 85 nM for the second.

Going from `COC(=O)N[C@H](C(=O)Nc1ccccc1CC[C@@H]1CN[C@H](COC(=O)NCc2cccc3ccncc23)CO1)C(c1ccccc1)c1ccccc1` [Example 18, methyl N-[(1S)-1-benzhydryl-2-[[2-[2-[(2R,5S)-5-(8-isoquinolylmethylcarbamoyloxymethyl)morpholin-2-yl]ethyl]phenyl]amino]-2-oxo-ethyl]carbamate] to `COC(=O)N[C@H](C(=O)Nc1ccccc1CC[C@@H]1CN[C@H](COC(=O)NCc2cccnc2)CO1)C(c1ccccc1)c1ccccc1` [Example 20, methyl N-[(1S)-1-benzhydryl-2-oxo-2-[[2-[2-[(2R,5S)-5-(3-pyridylmethylcarbamoyloxymethyl)morpholin-2-yl]ethyl]phenyl]amino]ethyl]carbamate], the IC50 rises from 28 nM to 78 nM (2.8-fold). The first is the more potent here.

`COC(=O)N[C@H](C(=O)Nc1ccccc1CC[C@@H]1CN[C@H](COC(=O)NCc2cncs2)CO1)C(c1ccccc1)c1ccccc1` [Example 19, methyl N-[(1S)-1-benzhydryl-2-oxo-2-[[2-[2-[(2R,5S)-5-(thiazol-5-ylmethylcarbamoyloxymethyl)morpholin-2-yl]ethyl]phenyl]amino]ethyl]carbamate] and `COC(=O)N[C@H](C(=O)Nc1ccccc1CC[C@@H]1CN[C@H](COC(=O)NCC2CC2)CO1)C(c1ccccc1)c1ccccc1` [Example 22, methyl N-[(1S)-1-benzhydryl-2-[[2-[2-[(2R,5S)-5-(cyclopropylmethylcarbamoyloxymethyl)morpholin-2-yl]ethyl]phenyl]amino]-2-oxo-ethyl]carbamate] are within 1.5-fold of each other in IC50: 48 nM for the first, 58 nM for the second.

Going from `COC(=O)N[C@H](C(=O)Nc1ccccc1CC[C@@H]1CN[C@H](COC(=O)NCc2ccc3nonc3c2)CO1)C(c1ccccc1)c1ccccc1` [Example 21, methyl N-[(1S)-1-benzhydryl-2-[[2-[2-[(2R,5S)-5-(2,1,3-benzoxadiazol-5-ylmethylcarbamoyloxymethyl)morpholin-2-yl]ethyl]phenyl]amino]-2-oxo-ethyl]carbamate] to `CCN(CC)C(=O)OC[C@@H]1CO[C@H](CCc2ccccc2NC(=O)[C@@H](NC(=O)OC)C(c2ccccc2)c2ccccc2)CN1` [Example 25], the IC50 rises from 52 nM to 120 nM (2.3-fold). The first is the more potent here.
